Results: patent US20090304823A1, “NUTRITIONAL COMPOSITIONS FOR PROMOTION OF BONE GROWTH AND MAINTENANCE OF BONE HEALTH AND METHODS REGARDING SAME” (NESTEC S.A., priority 2006, published 2009)

What was measured:
BMP-2 = BMP-2 gene reporter assay (high throughput screen); format: cell-based
Procedure: BMP-2 gene reporter assay (high throughput screen) (i) BMP-2 high throughput gene reporter assay of non-hydrolyzed MeOH/H2O extracts (1a) and corresponding glycosidase hydrolyzed extract in ethyl acetate (1b). Extracts were tested twice at concentrations of 1 to 100 μg/ml, diluted in culture medium from plant extract stocks prepared as 50 mg/ml in DMSO. (ii) Extracts positive in the BMP-2 screen were prepared de novo and screened again with dose-response to confirm as “hits”. (iii) BMP-2 testing of subfractionation of positives/hits and candidate pure compounds

osteoblast cells = experiment: Alkaline phosphatase assay in osteoblast cells (osteoblast differentiation); format: cell-based
[1] = system: neonatal murine calvarial bones; experiment: Calvaria organ culture in vitro, bone formation; format: cell-based
Procedure: (v) Final injection in vivo of “hit” extract into mouse calvaria bones and monitoring of bone area and thickness. Extracts were assessed in a 4-day in vitro neonatal murine calvarial assay. Bones were incubated with the extracts for the entire 4 days.

[2] = system: bovine articular cartilage explants; experiment: Cytokine-induced collagen degradation in articular cartilage explants; format: cell-based; conditions: 1 or 5 μM; FIG. 9C
Description: (vii) Effects on cytokine-induced type II collagen degradation, MMP-mediated aggrecan degradation and aggrecanase-mediated degradation in bovine articular cartilage explants.
We investigated here whether 2 different rosemary extracts and carnosol, one of the main components of this extract, could inhibit the degradation of collagen and aggrecan in cultured explants of articular cartilage. Explants from healthy bovine articular cartilage were put in culture. However, such explants naturally display a very low catabolic activity which is not ideal to test the anti-catabolic activity of potential bioactives. To improve the sensitivity of the assay, the explants are cultured in presence of 2 pro-inflammatory cytokines, TNF-α and oncostatin known to act together as potent inducers of MMP and aggrecanase activities.

NQO1 = NQO1 induction, immunoblot of hPOBtert cell extracts; format: cell-based, human; conditions: hPOBtert cells; FIG. 11
Procedure: Preparation of cytoplasmic extracts—hPOBtert cells were washed two times with cold phosphate-buffered saline and harvested with lysis buffer (1% Triton X-100, 20 mM Tris/HCL pH 8, 137 mM Nacl, 10% Glycerol, 2 mM EDTA pH 8, and freshly added proteinase inhibitors: 1 mM phenylmethylsulfonylfluoride, 0.15 U/ml Aprotinin, 10 μg/ml Leupeptide and 10 μg/ml Pepstatin). The samples were centrifuged at 13000 rpm, 4° C. for 5 min and the supernatant transferred to a fresh tube. The protein concentration was determined using the BioRad protein assay. Approximately 50 μg of each sample were mixed with a suitable volume of sample buffer, denatured for 5 min at 95° C. together with 5 μl protein standard, chilled on ice, and loaded on a 10% ready gel, and submitted to immunoblot analysis using anti-NQO1 antibodies.
Immunoblotting—50 μg of protein cell lysate were resolved by SDS-PAGE. After electrophoresis, proteins were transferred to a PVDF membrane (Invitrogen) according to the manufacturer's protocol. Membranes probed for OPN and NQO1 were blocked and probed in 5% milk in Tris-buffered saline/Tween (20 mM Tris base, pH 7.6, 137 mM, 0.1% Tween 20). The blots were visualised by chemiluminescence development, Western blotting detection system (Amersham Biosciences).
Antibodies—The NQO1 (sc-16464)-specific antibodies were purchased from Santa Cruz Biotechnologies Inc (Santa Cruz, Calif.). […]

Osteopontin (OPN) mRNA = experiment: OPN mRNA induction by real-time PCR in hPOBtert osteoblasts; format: cell-based, human; conditions: hPOBtert cells, 48 h; FIG. 10
Procedure: Cell culture—HPOBTert osteoblasts were seeded on collagen-coated plates and grown in MEM Eagle α Modification medium supplemented with 10% fetal bovine serum, 1% L-glutamine and penicillin/streptomycin, 1 mM β-glycerolphosphate and 50 μg/ml ascorbic acid in a humidified atmosphere of 5% CO2, and 95% air at 37° C. When carnosol and inhibitors were added, an equivalent amount of Me2SO was used as a vehicle control. Analysis of mRNA levels by Real-Time PCR—Total cellular RNA was extracted using the NucleoSpin RNA II kit (Macherey-Nagel, Switzerland). Equal amounts (1 μg) of RNA from the different treatments were reverse-transcribed using the First Strand cDNA Synthesis kit for RT-PCR (Roche, Mannheim, Germany). For each sample, 2 μl 10× reaction buffer, 4 μl 25 mM MgCl2, 2 μl nucleotide mix, 2 μl random primers, 1 μl RNAse inhibitor and 0.4 μl AMV reverse transcriptase from the kit were added to the sample. The reverse transcriptase was performed at the following thermal cycling conditions (25° C. for 10 min, 42 C for 60 min, and 75° C. for 5 min) using the PTC-100TM Concept, Switzerland). Real-time Quantitative PCR—Quantitative PCR was performed in 25 μl in triplicates. This consisted of 12.5 μl of Taqman 2× Universal PCR Master Mix, 1.25 μl Assay-on-Demand primers and probes (Applied Biosystems, USA) and 6.25 μl RNAse free water. […]

OPG/RANKL = experiment: Osteoblast/osteoclast co-culture system, cytokine regulation; format: cell-based
Procedure: For example, at least 3 phenolics (e.g. eupafolin, carnosol, scutellarein) may contribute to the anabolic potential of the rosemary extract. Additional phenolics of rosemary include genkwanin, kaempferol, acacetin. The rosemary plant extracts and pure compounds were tested in an osteoblast/osteoclast co-culture system.

O=c1c(O)c(-c2ccc(O)cc2)oc2cc(O)cc(O)c12 [Kaempferol]
BMP-2 induction (BMP-2; 1-10 μM): 2.5X | ALP activity induction (osteoblast cells; 2.5-10 μM): 2-4X | Bone formation in organ culture ([1]; 10 μM): Slight at 10 μM

COc1cc(O)c2c(=O)cc(-c3ccc(O)cc3)oc2c1 [V, Genkwanin]
BMP-2 induction (BMP-2; 5 μM): 4X | ALP activity induction (osteoblast cells; 10 μM): 1.5X

CC(C)c1cc2c(c(O)c1O)[C@@]13CCCC(C)(C)[C@@H]1C[C@@H]2OC3=O [VII, Carnosol]
cytokine induced collagen degradation [2]: inhibited | expression of the phase II enzyme NQO1 (NQO1): induces the expression | BMP-2 induction (BMP-2; 2.5-10 μM): 4.5-7X | BMP- Activity (BMP-2; compounds isolated from rosemary extract 2188): YES | OPN expression (OPN mRNA levels) (Osteopontin (OPN) mRNA): induce OPN expression dose-dependently | ALP activity induction (osteoblast cells; 2.5-10 μM): 2X | Bone formation in organ culture ([1]; 2.5 μM): Slight BF for 2.5 μM | Bone formation in organ culture ([1]; 5, 10 μM): Good BF for 5, 10 μM | regulation of the key cytokines controlling bone remodelling, OPG/RANKL (OPG/RANKL): activity for regulation

COc1ccc(-c2cc(=O)c3c(O)cc(O)cc3o2)cc1 [Acacetin]
BMP-2 induction (BMP-2; 5-10 μM): 3-5X | ALP activity induction (osteoblast cells; 5-10 μM): 2X

COc1c(O)cc2oc(-c3ccc(O)c(O)c3)cc(=O)c2c1O [Eupafolin]
BMP-2 induction (BMP-2; 2.5-10 μM): 3-8X | ALP activity induction (osteoblast cells; 5 μM): 2 X | ALP activity induction (osteoblast cells; 10 μM): 4 X | regulation of the key cytokines controlling bone remodelling, OPG/RANKL (OPG/RANKL): activity for regulation

O=c1cc(-c2ccc(O)cc2)oc2cc(O)c(O)c(O)c12 [IX, Scutellarein]
BMP-2 induction (BMP-2; 5, 10 μM): 3-4X | ALP activity induction (osteoblast cells; 10 μM): 2X
